Test results as given in patent publication EP1019392B1, “TRICYCLIC AMIDES USEFUL FOR INHIBITION OF G-PROTEIN FUNCTION AND FOR TREATMENT OF PROLIFERATIVE DISEASES” (SCHERING CORPORATION, priority 1995, dated 1997).
Values joined by “and” are separate entries in the source; they are usually repeats but may differ in a detail not shown here. Equal values may be shown once. Read-outs that look alike come from different tables or passages of the source.

Columns and labels:
[1] = biological target: T1, farnesyl protein transferase (FPT) (Rattus norvegicus, UniProt Q02293+Q04631); experiment: In vitro enzyme assay: inhibition of farnesyl protein transferase (transfer of [3H]farnesyl to Ras-CVLS); type: biochemical
T1 construct: were partially purified from rat brain by ammonium sulfate fractionation followed by Q-Sepharose; from tissue; host or cells: rat brain

Human tumor cells = experiment: Soft Agar Assay (anchorage-independent growth); type: cell-based; details: range over 5 tumor cell lines (K ras NIH 3T3, H ras NIH 3T3, HTB 177, A549, HTB 175), read-out: IC50 for each cell line
[2] = tested on: Ras-CVLL in COS monkey kidney cells; experiment: COS cell assay: geranylgeranylation of Ras-CVLL (Western blot); type: cell-based
[3] = FPT IC50, Table 1, partially purified rat brain FPT, Ras-CVLS
[4] = Table 1, partially purified rat brain FPT, Ras-CVLS, read-out: FPT IC50
[5] = Table 2, comparison with GGPT, read-out: ENZYME INHIBITION FPT IC50

SMILES	IC50 [1, 3]	IC50 [1, 4]	IC50 [1, 5]	IC50 (Human tumor cells)	did not block the geranylgeranylation of Ras-CVLL at concentrations up to [2]
O=C(Cc1cc[n+]([O-])cc1)N1CCN([C@H]2c3ccc(Cl)cc3CCc3cc(Br)cnc32)CC1 [Example 16B]	38 nM and 23 nM	–	–	–	–
O=C(Cc1cc[n+]([O-])cc1)N1CCN([C@@H]2c3ccc(Cl)cc3CCc3cc(Br)cnc32)CC1 [Example 16A]	32 nM and 26 nM	–	–	–	–
O=C(Cc1cc[n+]([O-])cc1)N1CCC([C@H]2c3ncc(Br)cc3CCc3cc(Cl)cc(Br)c32)CC1 [Example 9]	–	1.3 nM	1.3 nM	–	–
O=C(Cc1cc[n+]([O-])cc1)N1CCC(=C2c3ncc(Br)cc3CCc3cc(Cl)cc(Br)c32)CC1 (racemic) [Example 7]	–	12 nM	12 nM	–	–
NC(=O)N1CCC(CC(=O)N2CCC(C3c4ncc(Br)cc4CCc4cc(Cl)cc(Cl)c43)CC2)CC1 (single isomer, unassigned) [Example 18]	–	3.1 nM	3.1 nM	175 to 800 nM	–
O=C(Cc1cc[n+]([O-])cc1)N1CCC(=C2c3ccc(Cl)c(Br)c3CCc3cc(Br)cnc32)CC1 [Example 2]	–	10 nM and 16 nM	10 nM and 16 nM	–	> 33 µM
O=C(Cc1cc[n+]([O-])cc1)N1CCN([C@H]2c3ncc(Br)cc3CCc3cc(Cl)cc(Br)c32)CC1 [Example 11A]	–	1.8 nM and 2.1 nM	1.8 nM and 2.1 nM	–	–
NC(=O)N1CCC(CC(=O)N2CCC(C3c4ccc(Cl)c(Br)c4CCc4cc(Br)cnc43)CC2)CC1 (single isomer, unassigned) [Example 13]	–	5 nM	5 nM	–	–
O=C(Cc1cc[n+]([O-])cc1)N1CCN([C@H]2c3ccc(Cl)c(Br)c3CCc3cc(Br)cnc32)CC1 [Example 5]	–	2.3 nM	2.3 nM	–	–
O=C(Cc1cc[n+]([O-])cc1)N1CCC(C2c3ccc(Cl)c(Br)c3CCc3cc(Br)cnc32)CC1 (single isomer, unassigned) [Example 14A]	–	2.6 nM	2.6 nM	–	–
